Assay results: PubChem BioAssay (NCI)
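The compound was tested at five concentrations on cells cultured in 96-well plates, with a 48-hour exposure period. GI50: concentration for 50% inhibition of growth. At the TGI there is no net growth.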

Tests used:
Test in all cases: inhibition of tumour cell growth, NCI panel, 48 h
[1] = test system: 786-0 renal
[2] = test system: A498 renal
[3] = test system: A549 NSCLC
[4] = test system: ACHN renal
[5] = test system: BT-549 breast
[6] = test system: CAKI-1 renal
[7] = test system: CCRF-CEM leukemia
[8] = test system: COLO 205 colon
[9] = test system: DU-145 prostate
[10] = test system: EKVX NSCLC
[11] = test system: HCC-2998 colon
[12] = test system: HCT-116 colon
[13] = test system: HCT-15 colon
[14] = test system: HL-60(TB) leukemia
[15] = test system: HOP-62 NSCLC
[16] = test system: HOP-92 NSCLC
[17] = test system: HS 578T breast
[18] = test system: HT29 colon
[19] = test system: IGROV1 ovarian
[20] = test system: K-562 leukemia
[21] = test system: KM12 colon
[22] = test system: LOX IMVI melanoma
[23] = test system: M14 melanoma
[24] = test system: MALME-3M melanoma
[25] = test system: MCF7 breast
[26] = test system: MDA-MB-231 breast
[27] = test system: MDA-MB-435
[28] = test system: MOLT-4 leukemia
[29] = test system: NCI-H226 lung
[30] = test system: NCI-H23 lung
[31] = test system: NCI-H460 lung
[32] = test system: NCI-H522 lung
[33] = test system: NCI/ADR-RES ovarian
[34] = test system: OVCAR-3 ovarian
[35] = test system: OVCAR-4 ovarian
[36] = test system: OVCAR-5 ovarian
[37] = test system: OVCAR-8 ovarian
[38] = test system: PC-3 prostate
[39] = test system: RPMI-8226 leukemia
[40] = test system: RXF 393 renal
[41] = test system: SF-268 CNS
[42] = test system: SF-295 CNS
[43] = test system: SF-539 CNS
[44] = test system: SK-MEL-2 melanoma
[45] = test system: SK-MEL-28 melanoma
[46] = test system: SK-MEL-5 melanoma
[47] = test system: SK-OV-3 ovarian
[48] = test system: SN12C renal
[49] = test system: SNB-19 CNS
[50] = test system: SNB-75 CNS
[51] = test system: SW-620 colon
[52] = test system: T-47D breast
[53] = test system: TK-10 renal
[54] = test system: U251 CNS
[55] = test system: UACC-62 melanoma
[56] = test system: UO-31 renal
[57] = test system: UACC-257 melanoma

SMILES: COc1cc(-c2csc(NC(=O)Nc3ccc(Cl)c(C(F)(F)F)c3)n2)cc(OC)c1OC
- GI50 [1]: 2.08 µM
- TGI [1]: 6.47 µM
- GI50 [2]: 0.26 µM
- TGI [2]: 1.71 µM
- GI50 [3]: 1.38 µM
- TGI [3]: 4.75 µM
- GI50 [4]: 1.27 µM
- TGI [4]: 3.57 µM
- GI50 [5]: 1.94 µM
- TGI [5]: 5.55 µM
- GI50 [6]: 1.37 µM
- TGI [6]: 3.62 µM
- GI50 [7]: 2.24 µM
- TGI [7]: 12.8 µM
- GI50 [8]: 1.65 µM
- TGI [8]: 3.46 µM
- GI50 [9]: 1.79 µM
- TGI [9]: 6.67 µM
- GI50 [10]: 1.19 µM
- TGI [10]: 7.03 µM
- GI50 [11]: 2.95 µM
- TGI [11]: 10.6 µM
- GI50 [12]: 1.42 µM
- TGI [12]: 7.93 µM
- GI50 [13]: 1.54 µM
- TGI [13]: 10.7 µM
- GI50 [14]: 1.76 µM
- TGI [14]: 6.05 µM
- GI50 [15]: 1.7 µM
- TGI [15]: 4.57 µM
- GI50 [16]: 0.357 µM
- TGI [16]: 2.22 µM
- GI50 [17]: 1.67 µM
- TGI [17]: 5.47 µM
- GI50 [18]: 1.8 µM
- TGI [18]: 4.68 µM
- GI50 [19]: 1.83 µM
- TGI [19]: 9.3 µM
- GI50 [20]: 1.16 µM
- TGI [20]: 11.3 µM
- GI50 [21]: 0.764 µM
- TGI [21]: 4.93 µM
- GI50 [22]: 1.53 µM
- TGI [22]: 3.48 µM
- GI50 [23]: 2.26 µM
- TGI [23]: 7.3 µM
- GI50 [24]: 1.97 µM
- TGI [24]: 5.57 µM
- GI50 [25]: 1.87 µM
- TGI [25]: 10.1 µM
- GI50 [26]: 1.47 µM
- TGI [26]: 3.93 µM
- GI50 [27]: 1.81 µM
- TGI [27]: 4.84 µM
- GI50 [28]: 1.13 µM
- TGI [28]: 4.35 µM
- GI50 [29]: 1.74 µM
- TGI [29]: 6.03 µM
- GI50 [30]: 1.47 µM
- TGI [30]: 6.06 µM
- GI50 [31]: 1.37 µM
- TGI [31]: 3.5 µM
- GI50 [32]: 1.1 µM
- TGI [32]: 3.57 µM
- GI50 [33]: 1.5 µM
- TGI [33]: 5.53 µM
- GI50 [34]: 1.16 µM
- TGI [34]: 3.12 µM
- GI50 [35]: 1.15 µM
- TGI [35]: 4.53 µM
- GI50 [36]: 2.35 µM
- TGI [36]: 10.5 µM
- GI50 [37]: 1.38 µM
- TGI [37]: 3.66 µM
- GI50 [38]: 0.494 µM
- TGI [38]: 3.36 µM
- GI50 [39]: 0.573 µM
- TGI [39]: 4.1 µM
- GI50 [40]: 1.6 µM
- TGI [40]: 3.9 µM
- GI50 [41]: 2.25 µM
- TGI [41]: 10.4 µM
- GI50 [42]: 1.13 µM
- TGI [42]: 2.64 µM
- GI50 [43]: 1.89 µM
- TGI [43]: 5.47 µM
- GI50 [44]: 1.8 µM
- TGI [44]: 4.57 µM
- GI50 [45]: 2.6 µM
- TGI [45]: 11.3 µM
- GI50 [46]: 1.18 µM
- TGI [46]: 2.44 µM
- GI50 [47]: 1.98 µM
- TGI [47]: 4.55 µM
- GI50 [48]: 1.76 µM
- TGI [48]: 6.6 µM
- GI50 [49]: 1.93 µM
- TGI [49]: 6.97 µM
- GI50 [50]: 1.21 µM
- TGI [50]: 3.17 µM
- GI50 [51]: 2.06 µM
- TGI [51]: 10.5 µM
- GI50 [52]: 0.885 µM
- TGI [52]: 4.07 µM
- GI50 [53]: 1.78 µM
- TGI [53]: 5.03 µM
- GI50 [54]: 1.41 µM
- TGI [54]: 3.19 µM
- GI50 [55]: 1.24 µM
- TGI [55]: 3.75 µM
- GI50 [56]: 1.65 µM
- TGI [56]: 5.64 µM

SMILES: Cc1cc(C2CC(O)C(CO)O2)c(Cl)cc1Cl (stereo not given)
- GI50 [1]: > 100 µM
- TGI [1]: > 100 µM
- GI50 [2]: 58.2 µM
- TGI [2]: > 100 µM
- GI50 [3]: > 100 µM
- TGI [3]: > 100 µM
- GI50 [4]: > 100 µM
- TGI [4]: > 100 µM
- GI50 [5]: > 100 µM
- TGI [5]: > 100 µM
- GI50 [6]: > 100 µM
- TGI [6]: > 100 µM
- GI50 [7]: > 100 µM
- TGI [7]: > 100 µM
- GI50 [8]: > 100 µM
- TGI [8]: > 100 µM
- GI50 [9]: > 100 µM
- TGI [9]: > 100 µM
- GI50 [10]: 98.4 µM
- TGI [10]: > 100 µM
- GI50 [11]: > 100 µM
- TGI [11]: > 100 µM
- GI50 [12]: > 100 µM
- TGI [12]: > 100 µM
- GI50 [13]: > 100 µM
- TGI [13]: > 100 µM
- GI50 [14]: > 100 µM
- TGI [14]: > 100 µM
- GI50 [15]: > 100 µM
- TGI [15]: > 100 µM
- GI50 [16]: 89.4 µM
- TGI [16]: > 100 µM
- GI50 [17]: 84.8 µM
- TGI [17]: > 100 µM
- GI50 [18]: > 100 µM
- TGI [18]: > 100 µM
- GI50 [19]: 46.3 µM
- TGI [19]: > 100 µM
- GI50 [20]: > 100 µM
- TGI [20]: > 100 µM
- GI50 [21]: > 100 µM
- TGI [21]: > 100 µM
- GI50 [22]: 84.3 µM
- TGI [22]: > 100 µM
- GI50 [23]: > 100 µM
- TGI [23]: > 100 µM
- GI50 [24]: > 100 µM
- TGI [24]: > 100 µM
- GI50 [25]: > 100 µM
- TGI [25]: > 100 µM
- GI50 [26]: 69.5 µM
- TGI [26]: > 100 µM
- GI50 [27]: > 100 µM
- TGI [27]: > 100 µM
- GI50 [29]: 56.4 µM
- TGI [29]: > 100 µM
- GI50 [30]: > 100 µM
- TGI [30]: > 100 µM
- GI50 [31]: > 100 µM
- TGI [31]: > 100 µM
- GI50 [32]: > 100 µM
- TGI [32]: > 100 µM
- GI50 [33]: > 100 µM
- TGI [33]: > 100 µM
- GI50 [34]: > 100 µM
- TGI [34]: > 100 µM
- GI50 [36]: > 100 µM
- TGI [36]: > 100 µM
- GI50 [37]: > 100 µM
- TGI [37]: > 100 µM
- GI50 [38]: 77.8 µM
- TGI [38]: > 100 µM
- GI50 [39]: 70.4 µM
- TGI [39]: > 100 µM
- GI50 [40]: > 100 µM
- TGI [40]: > 100 µM
- GI50 [41]: > 100 µM
- TGI [41]: > 100 µM
- GI50 [42]: > 100 µM
- TGI [42]: > 100 µM
- GI50 [43]: > 100 µM
- TGI [43]: > 100 µM
- GI50 [44]: > 100 µM
- TGI [44]: > 100 µM
- GI50 [45]: > 100 µM
- TGI [45]: > 100 µM
- GI50 [46]: > 100 µM
- TGI [46]: > 100 µM
- GI50 [47]: > 100 µM
- TGI [47]: > 100 µM
- GI50 [48]: > 100 µM
- TGI [48]: > 100 µM
- GI50 [49]: > 100 µM
- TGI [49]: > 100 µM
- GI50 [51]: > 100 µM
- TGI [51]: > 100 µM
- GI50 [52]: > 100 µM
- TGI [52]: > 100 µM
- GI50 [53]: > 100 µM
- TGI [53]: > 100 µM
- GI50 [54]: > 100 µM
- TGI [54]: > 100 µM
- GI50 [57]: > 100 µM
- TGI [57]: > 100 µM
- GI50 [55]: 39.9 µM
- TGI [55]: > 100 µM
- GI50 [56]: > 100 µM
- TGI [56]: > 100 µM
